Laboratory results: patent EP4786474A1, “CRYSTALLINE FORM OF QUINAZOLINE DERIVATIVE AND PREPARATION METHOD THEREFOR” (Jiangsu Hengrui Pharmaceuticals Co., Ltd., priority 2023, dated 2025)

Tests used:
Format in all cases: physicochemical
[1] = DVS (dynamic vapor sorption) hygroscopicity testing
Source text: According to the description of hygroscopicity characteristics and the definition of hygroscopic weight gain in "General Rule 9103, Guidelines for Hygroscopicity Trials for Pharmaceuticals" in the Chinese Pharmacopoeia, Volume IV, 2015 Edition: • deliquescent: sufficient water is absorbed to form a liquid; • extremely hygroscopic: the hygroscopic weight gain is not less than 15%; • hygroscopic: the hygroscopic weight gain is less than 15% but not less than 2%; • slightly hygroscopic: the hygroscopic weight gain is less than 2% but not less than 0.2%; • nonhygroscopic or practically nonhygroscopic: the hygroscopic weight gain is less than 0.2%.
DVS refers to dynamic vapor sorption: The analysis was performed using SMS DVS Advantage; at 25 °C, the humidity was changed as follows: 50%-95%-0%-95%-50%, in steps of 10% (5% for the last step) (specific humidity ranges are shown in corresponding patterns, and those listed here were used in most cases); the criterion was dm/dt being not greater than 0.002%.

[2] = Influencing factor stability study; conditions: for physical and chemical stability: light exposure (4500 Lux), high temperature (40 °C and 60 °C), high humidity (RH 75% and RH 92.5%), 30 days
Experimental: Samples of the crystal forms D, E, and H were spread in open containers and left to stand under light exposure (4500 Lux), high temperature (40 °C and 60 °C), and high humidity (RH 75% and RH 92.5%) conditions for 1 month to investigate their stability.

[3] = Long-term/accelerated stability; conditions: for physical and chemical stability: long-term/accelerated conditions
Experimental: Samples of the crystal forms D, E, and H were left to stand under 25 °C/60% RH and 40 °C/75% RH conditions to investigate their stability: Table 30.

[4] = accelerated experimental conditions, 70% RH
[5] = normal storage conditions, 25 °C and 60% RH

## C=CC(=O)N1[C@@H]2CC[C@H]1C[C@@H](Oc1ccc3ncnc(Nc4ccc(Oc5ccn6ncnc6c5)c(C)c4F)c3c1)C2 [Crystal form E, 1-(endo-3-((4-((4-([1,2,4]Triazolo[1,5-a]pyridin-7-yloxy)-2-fluoro-3-methylphenyl)amino)quinazolin-6-yl)oxy)-8-azabicyclo[3.2.1]octan-8-yl)prop-2-en-1-one]
[1]; [4]
  hygroscopic weight gain: about 0.15%
[1]
  crystal form re-identified after DVS testing: the crystal form did not change
[1]; extreme conditions, 90% RH
  hygroscopic weight gain: about 0.25%
[1]; [5]
  hygroscopic weight gain: about 0.11%
[2]; 40 °C, 1 month
  Color and appearance: White powder
  Crystal form: No change
  Purity (%): 99.3%
[2]; 40 °C, 7 days
  Color and appearance: White powder
  Crystal form: No change
[2]; 40 °C, 14 days
  Color and appearance: White powder
  Crystal form: No change
[2]; 60 °C, 1 month
  Color and appearance: White powder
  Crystal form: No change
[2]; 60 °C, 7 days
  Color and appearance: White powder
  Crystal form: No change
[2]; 60 °C, 14 days
  Color and appearance: White powder
  Crystal form: No change
[2]; 75% RH, 1 month
  Color and appearance: White powder
  Crystal form: No change
[2]; 75% RH, 7 days
  Color and appearance: White powder
  Crystal form: No change
[2]; 75% RH, 14 days
  Color and appearance: White powder
  Crystal form: No change
[2]; 92.5% RH, 1 month
  Color and appearance: White powder
  Crystal form: No change
[2]; 92.5% RH, 7 days
  Color and appearance: White powder
  Crystal form: No change
[2]; 92.5% RH, 14 days
  Color and appearance: White powder
  Crystal form: No change
[2]; 4500 Lux, 1 month
  Color and appearance: White powder
  Crystal form: No change
  Purity (%): 99.4%
[2]; 4500 Lux, 7 days
  Color and appearance: White powder
  Crystal form: No change
[2]; 4500 Lux, 14 days
  Color and appearance: White powder
  Crystal form: No change
[2]; Initial, 0
  Color and appearance: White powder
  Crystal form: Crystal form E
[2]
  physical and chemical stability: Conclusion: Standing under light exposure (4500 Lux), high temperature (40 °C and 60 °C), and high humidity (RH 75% and RH 92.5%) conditions for 30 days, the crystal form E exhibited good physical and chemical stability.
[3]; 25 °C/60% RH, 1 month
  Color and appearance: White powder
  Crystal form: No change
[3]; 25 °C/60% RH, 2 months
  Color and appearance: White powder
  Crystal form: No change
[3]; 25 °C/60% RH, 3 months
  Color and appearance: White powder
  Crystal form: No change
[3]; 25 °C/60% RH, 6 months
  Color and appearance: White powder
  Crystal form: No change
[3]; 25 °C/60% RH, 14 days
  Color and appearance: White powder
  Crystal form: No change
[3]; 40 °C/75% RH, 1 month
  Color and appearance: White powder
  Crystal form: No change
[3]; 40 °C/75% RH, 2 months
  Color and appearance: White powder
  Crystal form: No change
[3]; 40 °C/75% RH, 3 months
  Color and appearance: White powder
  Crystal form: No change
[3]; 40 °C/75% RH, 6 months
  Color and appearance: White powder
  Crystal form: No change
[3]; 40 °C/75% RH, 14 days
  Color and appearance: White powder
  Crystal form: No change
[3]; Initial, 0
  Color and appearance: White powder
  Crystal form: Crystal form E
[3]
  physical and chemical stability: Conclusion: Under long-term/accelerated conditions, the crystal form E exhibited good physical and chemical stability.

## C=CC(=O)N1[C@@H]2CC[C@H]1C[C@@H](Oc1ccc3ncnc(Nc4ccc(Oc5ccn6ncnc6c5)c(C)c4F)c3c1)C2 [Crystal form D, 1-(endo-3-((4-((4-([1,2,4]Triazolo[1,5-a]pyridin-7-yloxy)-2-fluoro-3-methylphenyl)amino)quinazolin-6-yl)oxy)-8-azabicyclo[3.2.1]octan-8-yl)prop-2-en-1-one]
[1]; [4]
  hygroscopic weight gain: about 3.23%
[1]
  crystal form re-identified after DVS testing: the crystal form did not change
[1]; extreme conditions, 90% RH
  hygroscopic weight gain: about 3.52%
[1]; [5]
  hygroscopic weight gain: about 3.07%
[2]; 40 °C, 1 month
  Color and appearance: White powder
  Crystal form: No change
  Purity (%): 99.0%
[2]; 40 °C, 7 days
  Color and appearance: White powder
  Crystal form: No change
[2]; 40 °C, 13 days
  Color and appearance: White powder
  Crystal form: No change
  Purity (%): 99.4%
[2]; 60 °C, 1 month
  Color and appearance: White powder
  Crystal form: No change
  Purity (%): 99.2%
[2]; 60 °C, 7 days
  Color and appearance: White powder
  Crystal form: No change
[2]; 60 °C, 13 days
  Color and appearance: White powder
  Crystal form: No change
  Purity (%): 99.4%
[2]; 75% RH, 1 month
  Color and appearance: White powder
  Crystal form: No change
[2]; 75% RH, 13 days
  Color and appearance: White powder
  Crystal form: No change
[2]; 92.5% RH, 1 month
  Color and appearance: White powder
  Crystal form: No change
[2]; 92.5% RH, 13 days
  Color and appearance: White powder
  Crystal form: No change
[2]; 4500 Lux, 1 month
  Color and appearance: White powder
  Crystal form: No change
  Purity (%): 99.2%
[2]; 4500 Lux, 7 days
  Color and appearance: White powder
  Crystal form: No change
  Purity (%): 99.4%
[2]; 4500 Lux, 13 days
  Color and appearance: White powder
  Crystal form: No change
  Purity (%): 99.3%
[2]; Initial, 0
  Color and appearance: White powder
  Crystal form: Crystal form D
[2]
  physical and chemical stability: Conclusion: Standing under light exposure (4500 Lux), high temperature (40 °C and 60 °C), and high humidity (RH 75% and RH 92.5%) conditions for 30 days, the crystal form D exhibited good physical and chemical stability.
[3]; 25 °C/60% RH, 1 month
  Color and appearance: White powder
  Crystal form: No change
[3]; 25 °C/60% RH, 2 months
  Color and appearance: White powder
  Crystal form: No change
[3]; 25 °C/60% RH, 3 months
  Color and appearance: White powder
  Crystal form: No change
[3]; 25 °C/60% RH, 6 months
  Color and appearance: White powder
  Crystal form: No change
[3]; 25 °C/60% RH, 14 days
  Color and appearance: White powder
  Crystal form: No change
[3]; 40 °C/75% RH, 1 month
  Color and appearance: White powder
  Crystal form: No change
[3]; 40 °C/75% RH, 2 months
  Color and appearance: White powder
  Crystal form: No change
[3]; 40 °C/75% RH, 3 months
  Color and appearance: White powder
  Crystal form: No change
[3]; 40 °C/75% RH, 6 months
  Color and appearance: White powder
  Crystal form: No change
[3]; 40 °C/75% RH, 14 days
  Color and appearance: White powder
  Crystal form: No change
[3]; Initial, 0
  Color and appearance: White powder
  Crystal form: Crystal form D
[3]
  physical and chemical stability: Conclusion: Under long-term/accelerated conditions, the crystal form D exhibited good physical and chemical stability.
